# How the values were obtained:
# TIL [1] = experiment: Cytokine expression of TILs after overnight anti-CD3/CD28 bead stimulation; assay type: cell-based
# Excerpt: Control or decitabine-treated cryopreserved TILs were thawed and stained for flow cytometry analysis.
# TIL [2] = experiment: AKT inhibitor (ipatasertib) added during ex vivo TIL expansion: expansion, viability, phenotype; assay type: cell-based
# Experimental: Patient tumors from different indications were received, fragmented, and subjected to an expansion protocol for TIL manufacturing. Different doses (0.3 μM and 1 μM) of the pan-AKT inhibitor ipatasertib were added to the culture during ex vivo expansion. The expansion potential, as well as the phenotypic and functional characteristics were evaluated on the final TIL product. Eight tumors, including tumors from melanoma, NSCLC, head and neck cancer, ovarian cancer, and breast cancer, were used in combination with the Gen 2 process. […] Expansion, viability and T cell distribution in control and AKT inhibitor-treated TILs are shown. TILs were left untreated or treated with increasing concentrations of the pan-AKT inhibitor ipatasertib. Treatment was added either during the pre-REP and REP (blue bars) or during the REP stage only (purple bars). Fold expansion and viability of TIL at the end of the 22-day expansion process are shown. Frequency of CD8^+, CD4^+ and CD4^+ (Foxp3^+) cells after the expansion process on cryopreserved cells are also shown.
# PD-L1 [3] = target: PD-L1 (Homo sapiens, UniProt Q9NZQ7); experiment: Hek-IL-18 SEAP reporter assay of CCR8 and CCR8.2 stimulated with PD-L1; assay type: cell-based; conditions: 650 nm, IL-18 standard
# Sequence of PD-L1 (Homo sapiens, UniProt Q9NZQ7) (Q9NZQ7 19-290): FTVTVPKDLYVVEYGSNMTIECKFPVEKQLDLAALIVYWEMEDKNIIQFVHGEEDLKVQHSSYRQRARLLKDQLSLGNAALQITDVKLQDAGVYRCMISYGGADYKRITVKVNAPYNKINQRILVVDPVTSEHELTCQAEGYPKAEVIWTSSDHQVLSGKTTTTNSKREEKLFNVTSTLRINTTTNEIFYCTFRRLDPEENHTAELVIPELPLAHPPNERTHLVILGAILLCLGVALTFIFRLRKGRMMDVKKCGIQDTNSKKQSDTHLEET
# Experimental: The biological function of the CCR constructs was tested with Hek-IL-18 SEAP reporter lines. CCR8 and CCR8.2 transduced HekIL-18 reporter cells (5×10^4) were stimulated with the indicated concentration of PD-L1 (His tagged) in the presence of anti-His antibody (antibody:protein ratio=2:1; e.g., for 5 μg/mL PD-L1, add 10 μg/mL anti-His antibody). After 24 hours, supernatants were harvested, and SEAP level was determined with a spectrophotometer at 650 nm after adding Quanti-blue solution. CCR12 and CCR12.2 transduced HekIL-18 reporter cells (5×10^4) were stimulated with the indicated concentration of TROP-2 (His tagged) in the presence of anti-His antibody (antibody:protein ratio=2:1). After 24 hours, supernatants were harvested, and SEAP level was determined with a spectrophotometer at 650 nm after adding Quanti-blue solution.
# [4] = target: T1, human PD-L1 on hPD-L1 Raji cells (human, UniProt Q9NZQ7 19-290); experiment: flow cytometry on hPD-L1 Raji cells, titration in the presence of the other antibody
# T1 construct: whole, on cells
# T1 sequence (Q9NZQ7 19-290): as above
# PD-L1 [5] = target: T2, PD-L1 (human, UniProt Q9NZQ7 19-238, limits assumed); experiment: EC50 of anti-PD-L1 antibody clone; assay not given
# T2 construct: also called hPD-L1; CD274
# T2 sequence (Q9NZQ7 19-238 limits assumed): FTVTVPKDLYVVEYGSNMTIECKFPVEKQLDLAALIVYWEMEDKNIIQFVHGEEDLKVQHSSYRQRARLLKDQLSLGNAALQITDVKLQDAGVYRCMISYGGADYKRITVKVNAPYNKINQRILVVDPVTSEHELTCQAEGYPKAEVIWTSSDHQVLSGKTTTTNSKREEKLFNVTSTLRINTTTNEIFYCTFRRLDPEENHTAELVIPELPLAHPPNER
molecule,measurement,setting,value
CC(C)NC[C@@H](C(=O)N1CCN(c2ncnc3c2[C@H](C)C[C@H]3O)CC1)c1ccc(Cl)cc1 [ipatasertib],frequency of IFNγ+TNFα+CD8+ T cells,TIL [1],increase
same,cytokine output following stimulation,"TIL [1]; 1 μM at pre-REP and REP, anti-CD3/CD28 beads overnight, bead-to-cell ratio 1:5",higher cytokine output
same,IL-7R and CXCR3 expression on CD8+ TILs,TIL [2],increase
same,TOX expression following stimulation,TIL [2],lower
same,frequency of CD8+ TEMRA cells,TIL [2],increase
same,frequency of less differentiated CD8+CD69−CD39− T cells on CD8+ and CD4+ TILs,TIL [2],increases
same,expansion and viability of TILs relative to controls,TIL [2]; 1 μM dose,equivalent
same,expression of CD38 and transcription factors T-bet and TOX in CD39− CD69− cells,TIL [2]; 1 μM dose,reduced expression
same,population of less differentiated CD39− CD69− cells,TIL [2]; 1 μM dose,doubled
same,"T cell ratios (CD8+, CD4+, CD4+ Foxp3+)",TIL [2]; after the expansion process,without affecting
same,TIL expansion and viability,"TIL [2]; pre-REP and REP or REP only, end of 22-day expansion",maintains
IL-18: IL-18 standard in Hek-IL-18 SEAP reporter assay,IL-18 stimulation equivalent to an OD value of 0.5,PD-L1 [3],about 3.175 pg/mL
"38A1-IgG4-HA (antibody, The order of the parts and the format (scFv-IgG4 Fc-HA) of the tested protein are not spelled out; Detected with anti-HA-APC; also called anti-PD-L1 Ab clone 38A1-IgG4-HA; scFv-Fc antibody 38A1; not shown: IgG4 part, known only from the name 38A1-IgG4-HA; HA tag) EVQLVESGGGLVQPGGSLRLSCAASGFTFSNYAMSWVRQAPGKGLEWVSTISGSGGTTYYADSVKGRFTISRDNSKNTLYLQMNSLRVEDTAVYYCAKDWFRSSSPDAFDIWGQGTTVTVSAGGGGSGGGGSGGGGSGAPSYVLTQPPSVSVAPGQTARITCGGNNIGRKIVHWYQQRPGQAPVLVIYYDTDRPAGIPERFSGSNSGNMATLTISTVGAGDEADYYCQVWDTGSDHVVFGGGTKLTVL",binding result,[4],binds
38A1-IgG4-HA (antibody) EVQLVESGGGLVQPGGSLRLSCAASGFTFSNYAMSWVRQAPGKGLEWVSTISGSGGTTYYADSVKGRFTISRDNSKNTLYLQMNSLRVEDTAVYYCAKDWFRSSSPDAFDIWGQGTTVTVSAGGGGSGGGGSGGGGSGAPSYVLTQPPSVSVAPGQTARITCGGNNIGRKIVHWYQQRPGQAPVLVIYYDTDRPAGIPERFSGSNSGNMATLTISTVGAGDEADYYCQVWDTGSDHVVFGGGTKLTVL,EC50,PD-L1 [5],404 pM
19H9-IgG4-Flag (antibody) QVQLQESGGGLVKPGGSLRLSCAASGFTFSSYSMNWVRQAPGKGLEWVSGINTAGDTHYPESVKGRFTISRDNARNSLNLQMNSLRAEDTAVYYCVRERVEREYSGYDAFDIWGQGTTVTVSAGGGGSGGGGSGGGGSGAPNFMLTQPHSVSESLGKTVTISCTGSSGSIARKFVQWYQQRPGSSPTTVIYENNQRPSGVSDRFSGSIGSSSNSASLTISGLKTEDEADYYCQSYDSSNVVFGGGTKVTVL,EC50,PD-L1 [5],125 pM
"19H9-IgG4-Flag (antibody, The order of the parts and the format of the tested protein are not spelled out; Detected with anti-Flag-AF488; also called 19H-IgG4-Flag; scFv-Fc antibody 19H9; not shown: IgG4 part, known only from the name 19H9-IgG4-Flag; Flag tag) QVQLQESGGGLVKPGGSLRLSCAASGFTFSSYSMNWVRQAPGKGLEWVSGINTAGDTHYPESVKGRFTISRDNARNSLNLQMNSLRAEDTAVYYCVRERVEREYSGYDAFDIWGQGTTVTVSAGGGGSGGGGSGGGGSGAPNFMLTQPHSVSESLGKTVTISCTGSSGSIARKFVQWYQQRPGSSPTTVIYENNQRPSGVSDRFSGSIGSSSNSASLTISGLKTEDEADYYCQSYDSSNVVFGGGTKVTVL",binding result,[4],binds

# Reference: patent US20260021181A1, “CHIMERIC COSTIMULATORY RECEPTORS, CHEMOKINE RECEPTORS, AND THE USE OF SAME IN CELLULAR IMMUNOTHERAPIES” (Iovance Biotherapeutics, Inc., priority 2022, published 2026)
